From EP1210336B1, “SUBSTITUTED BENZIMIDAZOLES AS NON-NUCLEOSIDE INHIBITORS OF REVERSE TRANSCRIPTASE” (THE UNITED STATES OF AMERICA, as represented by the …, priority 1999, dated 2001)
Where two headings read alike, the source gives them in different places.

Tests used:
HIV-1 WT RT = target: T1, HIV-1 WT RT (Human immunodeficiency virus type 1 group M subtype B, UniProt P03366); test: biochemical; settings: for IC50: read-out: IC50
T1 construct: purified RT protein (0.015 mg/mL) was incubated in a 100 µL reaction mixture

WT virus (NL4-3) = test: microbe, parasite or virus in culture; assay type: cell-based, HIV-1; settings: for EC50: Human immunodeficiency virus 1, NL43, CEM-SS, read-out: EC50
Description: Evaluation of these compounds for the inhibition of HIV-1 was determined as the fifty percent cell culture inhibitory concentration (CIC50) in CEMSS cell culture with WT virus (NL4-3).
(§1) In this Example, the antiviral and cellular toxicity of NNRTIs was investigated, using the cytopathic cell killing assay described by Yang (Yang et al., "Characteristics of a Group of Non-nucleoside Reverse Transcriptase Inhibitors with Structural Diversity and Potent Anti-Human Immunodeficiency Virus Activity," Leukemia 9:S75-S85 [1995]). Briefly, in this method cells (e.g., the CEM-SS cell line, available from the NIAID AIDS Research and Reference Program [ARRRP]) were seeded at a density of 5 x 10^3 cells/well, into the wells of a 96-well microtiter plate. The cells were then infected with HIV virus (either mutant or WT), at a multiplicity of infection (MOI) previously determined to provide complete cell killing by 6 days of culture post-infection (e.g., MOI of 0.01-0.05). Each of the HIV isolates was pre-titered to induce equivalent levels of infection based on cell killing or virus production, prior to their use in these assays. A range of test compound concentrations was added to the wells in triplicate (e.g., serial half-log dilutions) to evaluate inhibition of HIV infection. Controls for each assay included drug controls (drug colorimetric control wells), drug cytotoxicity control wells (cells with drug), virus control wells (cells with virus), and cell viability controls (cells only). Positive control drugs (e.g., AZT and ddC) were also run in parallel.
(§2) After six days of incubation at 37°C, cell viability was determined spectrophotometrically at 450 nm for each well, using the metabolic reduction of XTT to a soluble colored formazan. (See, Gartner and Popovic, "Virus Isolation and Production, in Aldovini and Walker (eds.), Techniques in HIV Research, Stockton Press, NY, pp. […] [1991]; and Nara and Fischinger, "Quantitative Infectivity Assay for HIV-1 and HIV-2," Nature 332:469-470 [1988]).
(§3) The in vitro therapeutic index (TI50) was defined as the fold-difference between the EC50 and IC50. The results for the various compounds are included in Figures 8 and 19.

NL4-3 (WT) = test: Cytopathic cell killing assay, cross-resistance profile, infected MT-4 cells; assay type: cell-based, HIV-1
Description: (§4) The various HIV isolates tested in the Figures are those corresponding to wild-type virus (NL4-3) and the other strains listed by their RT mutations. The three 4xAZT isolates included in the Figures represent AZT drug-resistant variants. For example, the 4xAZT/L100I isolate has five mutations: four mutations confer increased resistance to AZT, and the other mutation is located within the NNRTI binding pocket. TZB and nevir. (nevirapine) are two well-known NNRTIs, included in this experiment for comparison purposes. […]
as §1, §2, §3

[1] = tested on: HIV-1 isolate 4xAZT/Y181C; test: as above; assay type: cell-based
Description: as §4, §1, §2, §3

HIV-1 isolate 4xAZT = test: as above; assay type: cell-based
Description: as §4, §1, §2, §3

HIV-1 variant A98G = test: as above; assay type: cell-based
Description: as §4, §1, §2, §3

HIV-1 variant K101E = test: as above; assay type: cell-based
Description: as §4, §1, §2, §3

HIV-1 variant K103N = test: as above; assay type: cell-based; settings: isolate K103N
Description: as §4, §1, §2, §3

HIV-1 variant L100I = test: as above; assay type: cell-based
Description: as §4, §1, §2, §3

HIV-1 variant L74V = test: as above; assay type: cell-based
Description: as §4, §1, §2, §3

HIV-1 variant V106A = test: as above; assay type: cell-based
Description: as §4, §1, §2, §3

HIV-1 variant V108I = test: as above; assay type: cell-based
Description: as §4, §1, §2, §3

HIV-1 variant V179D = test: as above; assay type: cell-based; settings: isolate V179D
Description: as §4, §1, §2, §3

HIV-1 variant Y181C = test: as above; assay type: cell-based; settings: isolate Y181C
Description: as §4, §1, §2, §3

HIV-1 variant Y188C = test: as above; assay type: cell-based
Description: as §4, §1, §2, §3

[2] = tested on: HIV-1 isolate 4xAZT/L100I; test: as above; assay type: cell-based
Description: The various HIV isolates tested in the Figures are those corresponding to wild-type virus (NL4-3) and the other strains listed by their RT mutations. The three 4xAZT isolates included in the Figures represent AZT drug-resistant variants. […]
as §1, with “Briefly,” for “In this Example, the antiviral and cellular toxicity of NNRTIs was investigated, using the cytopathic cell killing assay described by Yang (Yang et al., "Characteristics of a Group of Non-nucleoside Reverse Transcriptase Inhibitors with Structural Diversity and Potent Anti-Human Immunodeficiency Virus Activity," Leukemia 9:S75-S85 [1995]). Briefly,”
as §2
The in vitro therapeutic index (TI50) was defined as the fold-difference between the EC50 and IC50.

[3] = Table 11, CEMSS/NL4-3, NRVC = reduction in viral CPE not seen (footnote)
[4] = Human immunodeficiency virus 1, MT4, Table 4
[5] = Human immunodeficiency virus 1, MT4, Table 9
[6] = Human immunodeficiency virus 1, MT4, Table 8

Fc1cccc(F)c1Cn1c(-c2c(F)cccc2F)nc2ccccc21 [compound 26, 1-(2,6-difluorobenzyl)-2-(2,6-difluorophenyl)benzimidazole]
inhibition at 10 µM (HIV-1 WT RT; Table 1, WT RT, 10 µM drug concentration, read-out: %inhibn (10µM)): 93%
IC50 (HIV-1 WT RT; Table 1, quantity of drug required to reduce WT RT enzyme activity by 50%): 110 nM
%inhibn (10µM) (HIV-1 WT RT; Table 2, WT RT, 10 µM drug concentration): 93%
IC50 (HIV-1 WT RT; Table 11, WT RT): 110 nM
EC50 (WT virus (NL4-3); [3]): 1700 nM
EC50 (NL4-3 (WT); Human immunodeficiency virus 1, NL43, MT4, Table 4, isolate NL4-3 (WT)): 1850 nM
EC50 (NL4-3 (WT); Human immunodeficiency virus 1, NL43, MT4, Table 9, isolate NL4.3): 2200 nM
EC50 ([1]; Human immunodeficiency virus 1, MT4, Table 4, isolate 4xAZT/Y181C): > 20000 nM
EC50 ([1]; Human immunodeficiency virus 1, MT4, Table 9, isolate 4XAZT /Y181C): 20000 nM
EC50 (HIV-1 isolate 4xAZT; Human immunodeficiency virus 1, MT4, Table 4, isolate 4xAZT): 270 nM
EC50 (HIV-1 isolate 4xAZT; Human immunodeficiency virus 1, MT4, Table 9, isolate 4XAZT): 300 nM
EC50 (HIV-1 variant A98G; Human immunodeficiency virus 1, MT4, Table 4, isolate A98G): 4750 nM
EC50 (HIV-1 variant A98G; Human immunodeficiency virus 1, MT4, Table 9, isolate A98G): 4700 nM
EC50 (HIV-1 variant K101E; Human immunodeficiency virus 1, MT4, Table 4, isolate K101E): > 20000 nM
EC50 (HIV-1 variant K101E; Human immunodeficiency virus 1, MT4, Table 9, isolate KIOIE): > 20000 nM
EC50 (HIV-1 variant K103N; [4]): 12900 nM
EC50 (HIV-1 variant K103N; [5]): > 10000 nM
EC50 (HIV-1 variant L100I; Human immunodeficiency virus 1, MT4, Table 4, isolate L1001): 1360 nM
EC50 (HIV-1 variant L100I; Human immunodeficiency virus 1, MT4, Table 9, isolate L1001): 1300 nM
EC50 (HIV-1 variant L74V; Human immunodeficiency virus 1, MT4, Table 4, isolate L74V): 460 nM
EC50 (HIV-1 variant L74V; Human immunodeficiency virus 1, MT4, Table 9, isolate 1.74 V): 1900 nM
EC50 (HIV-1 variant V106A; Human immunodeficiency virus 1, MT4, Table 4, isolate V106A): > 20000 nM
EC50 (HIV-1 variant V106A; Human immunodeficiency virus 1, MT4, Table 9, isolate V106A): > 20000 nM
EC50 (HIV-1 variant V108I; Human immunodeficiency virus 1, MT4, Table 4, isolate V108I): 10400 nM
EC50 (HIV-1 variant V108I; Human immunodeficiency virus 1, MT4, Table 9, isolate V1081): > 10000 nM
EC50 (HIV-1 variant V179D; [4]): 2300 nM
EC50 (HIV-1 variant V179D; [5]): 2900 nM
EC50 (HIV-1 variant Y181C; [4]): 15200 nM
EC50 (HIV-1 variant Y181C; [5]): 14000 nM
EC50 (HIV-1 variant Y188C; Human immunodeficiency virus 1, MT4, Table 4, isolate Y188C): 11700 nM
EC50 (HIV-1 variant Y188C; Human immunodeficiency virus 1, MT4, Table 9, isolate Y188C): > 10000 nM
EC50 ([2]; Human immunodeficiency virus 1, MT4, Table 4, isolate 4xAZT/L.1001): 840 nM
EC50 ([2]; Human immunodeficiency virus 1, MT4, Table 9, isolate 4XAZT /L1001): 900 nM

CC(=O)N(C)c1cccc2c1nc(-c1c(F)cccc1F)n2Cc1c(F)cccc1F [compound 57, 1-(2,6-Difluorobenzyl)-2-(2,6-difluorophenyl)-4-(N-methylacetamido)-benzimidazole]
EC50 (WT virus (NL4-3); Table 7, concentration reducing cell killing or virus production by 50%, HIV-1 WT): 20 nM
EC50 (WT virus (NL4-3); [3]): 20 nM
EC50 (WT virus (NL4-3); cytopathic cell killing assay, HIV-1 WT): 20 nM
-fold more potent than the 4-methyl or 4-amino compounds (WT virus (NL4-3); cytopathic cell killing assay): 20 fold
EC50 (NL4-3 (WT); Human immunodeficiency virus 1, NL43, MT4, Table 8, isolate N1.43): 40 nM
EC50 ([1]; Human immunodeficiency virus 1, MT4, Table 8, isolate 4XAZT /Y181C): > 10000 nM
EC50 (HIV-1 isolate 4xAZT; Human immunodeficiency virus 1, MT4, Table 8, isolate 4XAZT): > 10000 nM
EC50 (HIV-1 variant A98G; Human immunodeficiency virus 1, MT4, Table 8, isolate A9SG): 100 nM
EC50 (HIV-1 variant K101E; Human immunodeficiency virus 1, MT4, Table 8, isolate K101E): 600 nM
EC50 (HIV-1 variant K103N; [6]): > 10000 nM
EC50 (HIV-1 variant L100I; Human immunodeficiency virus 1, MT4, Table 8, isolate 1.1001): 1700 nM
EC50 (HIV-1 variant L74V; Human immunodeficiency virus 1, MT4, Table 8, isolate 1.74V): 70 nM
EC50 (HIV-1 variant V106A; Human immunodeficiency virus 1, MT4, Table 8, isolate V 106A): 50 nM
EC50 (HIV-1 variant V108I; Human immunodeficiency virus 1, MT4, Table 8, isolate V1081): > 10000 nM
EC50 (HIV-1 variant V179D; [6]): 400 nM
EC50 (HIV-1 variant Y188C; Human immunodeficiency virus 1, MT4, Table 8, isolate Y 188C): 500 nM
EC50 ([2]; Human immunodeficiency virus 1, MT4, Table 8, isolate 4XA7T L 1001): 1800 nM
